According to PubChem BioAssay AID248 (DTP/NCI, 2004):
Where “and” joins values, the source holds several entries; their conditions need not be identical. Identical values can stand only once. Toxic doses and inconclusive results are not listed. No stated cut-off is given here; in the data, active means T/C of 150% or more; inactive means T/C below 125%.

Tested on: L1210 leukemia ip in BDF1 mice, survival T/C
Test: NCI In Vivo Anticancer Drug Screen. Data for tumor model L1210 Leukemia (intraperitoneal) in B6D2F1 (BDF1) mice
Details: endpoint: mean survival time, higher = longer survival
Method in brief: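 Transplanted-tumor mice were given test agent; controls received vehicle only. Survival readings from the two groups were divided (treated over control).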

[1] = dose: 100.0 mg/kg/injection, schedule: Q04DX003 (ip), vehicle: saline
[2] = dose: 200.0 mg/kg/injection, schedule: Q04DX003 (ip), vehicle: saline
[3] = dose: 400.0 mg/kg/injection, schedule: Q04DX003 (ip), vehicle: saline
[4] = dose: 50.0 mg/kg/injection, schedule: Q01DX009 (ip), vehicle: Klucel (hydroxypropylcellulose) (HPC)
[5] = dose: 100.0 mg/kg/injection, schedule: Q01DX009 (ip), vehicle: Klucel (hydroxypropylcellulose) (HPC)
[6] = dose: 100.0 mg/kg/injection, schedule: Q04DX002 (ip), vehicle: Klucel (hydroxypropylcellulose) (HPC)
[7] = dose: 200.0 mg/kg/injection, schedule: Q04DX002 (ip), vehicle: Klucel (hydroxypropylcellulose) (HPC)
[8] = dose: 200.0 mg/kg/injection, schedule: Q01DX009 (ip), vehicle: Klucel (hydroxypropylcellulose) (HPC)
[9] = dose: 100.0 mg/kg/injection, schedule: Q04DX003 (ip), vehicle: Klucel (hydroxypropylcellulose) (HPC)
[10] = dose: 200.0 mg/kg/injection, schedule: Q04DX003 (ip), vehicle: Klucel (hydroxypropylcellulose) (HPC)
[11] = dose: 400.0 mg/kg/injection, schedule: Q01DX009 (ip), vehicle: Klucel (hydroxypropylcellulose) (HPC)
[12] = dose: 400.0 mg/kg/injection, schedule: Q04DX003 (ip), vehicle: Klucel (hydroxypropylcellulose) (HPC)
[13] = dose: 25.0 mg/kg/injection, schedule: Q04DX003 (ip), vehicle: saline
[14] = dose: 6.25 mg/kg/injection, schedule: Q01DX009 (ip), vehicle: saline with Tween-80
[15] = dose: 100.0 mg/kg/injection, schedule: Q04DX003 (ip), vehicle: saline with Tween-80
[16] = dose: 200.0 mg/kg/injection, schedule: Q04DX003 (ip), vehicle: saline with Tween-80

Measured: T/C

[O-][n+]1ccnc2ccccc21
inactive: [1] 100 % of control | [2] 108 % of control | [3] 110 % of control

CC(=O)C(N=Nc1ccccc1)C(C)=O
inactive: dose: 25.0 mg/kg/injection, schedule: Q01DX009 (ip), vehicle: Klucel (hydroxypropylcellulose) (HPC) 94 % of control | [4] 92 % of control | [5] 97 % of control and 102 % of control

COC(=O)CS(=O)(=O)C/C(=N\Nc1ccccc1)c1ccccc1
inactive: dose: 75.0 mg/kg/injection, schedule: Q01DX001 (ip), vehicle: saline 104 % of control | dose: 150.0 mg/kg/injection, schedule: Q01DX001 (ip), vehicle: saline 92 % of control | dose: 300.0 mg/kg/injection, schedule: Q01DX001 (ip), vehicle: saline 98 % of control

c1cc(-c2ncc[nH]2)ccn1
inactive: dose: 100.0 mg/kg/injection, schedule: Q01DX001 (ip), vehicle: saline with Tween-80 100 % of control

OC1CCN(C2(c3ccccc3)CCCCC2)CC1
inactive: [6] 104 % of control | [7] 86 % of control

CNC(=O)Nc1ccccc1[N+](=O)[O-]
inactive: [6] 108 % of control | [7] 97 % of control

CCCCCCCCCCCC(=O)NC(=S)Nc1cc(OC)ccc1OC
inactive: [6] 104 % of control | [7] 111 % of control | dose: 400.0 mg/kg/injection, schedule: Q04DX002 (ip), vehicle: Klucel (hydroxypropylcellulose) (HPC) 93 % of control

N=c1c2ccccc2nnn1-c1ccccc1[N+](=O)[O-]
inactive: dose: 75.0 mg/kg/injection, schedule: Q01DX001 (ip), vehicle: other 92 % of control | dose: 150.0 mg/kg/injection, schedule: Q01DX001 (ip), vehicle: other 99 % of control | dose: 300.0 mg/kg/injection, schedule: Q01DX001 (ip), vehicle: other 92 % of control

Nc1cc(N)c([N+](=O)[O-])cc1[N+](=O)[O-]
inactive: dose: 100.0 mg/kg/injection, schedule: Q01DX009 (ip), vehicle: saline with Tween-80 98 % of control | dose: 200.0 mg/kg/injection, schedule: Q01DX009 (ip), vehicle: saline with Tween-80 93 % of control | dose: 400.0 mg/kg/injection, schedule: Q01DX009 (ip), vehicle: saline with Tween-80 98 % of control

CS/C(N)=N\[N+](=O)[O-]
inactive: [4] 89 % of control | [5] 110 % of control | [8] 114 % of control

ClC1=C(Cl)C2(Cl)C(C1Cl)C1(Cl)C(Cl)=C(Cl)C2(Cl)C1Cl (configuration not stated)
inactive: [5] 97 % of control | [9] 102 % of control | [8] 97 % of control | [10] 104 % of control | [11] 97 % of control | [12] 93 % of control

COc1cc2c(cc1Cl)nc1c(=O)[nH]c(=O)nc-1n2CCN1CCCC1
inactive: dose: 8.7 mg/kg/injection, schedule: Q01DX Z (ip), vehicle: methylcellulose (MC) 97 % of control | dose: 17.5 mg/kg/injection, schedule: Q01DX Z (ip), vehicle: methylcellulose (MC) 94 % of control | dose: 70.0 mg/kg/injection, schedule: Q01DX Z (ip), vehicle: methylcellulose (MC) 114 % of control

Cn1cc(Cl)nc1CO
inactive: dose: 100.0 mg/kg/injection, schedule: Q01DX009 (ip), vehicle: saline sonified 91 % of control | [1] 91 % of control | dose: 200.0 mg/kg/injection, schedule: Q01DX009 (ip), vehicle: saline sonified 102 % of control | [2] 107 % of control | dose: 400.0 mg/kg/injection, schedule: Q01DX009 (ip), vehicle: saline sonified 93 % of control | [3] 102 % of control

O=C(N/N=C/c1ccccc1O)c1ccccc1NC(=O)C1CC1
inactive: [5] 104 % of control | [8] 95 % of control | [11] 101 % of control

O=C(NC1CCC(CC2CCCCC2)CC1)C(Cl)Cl (configuration not stated)
inactive: [5] 91 % of control | [9] 93 % of control | [8] 93 % of control | [10] 88 % of control | [11] 91 % of control | [12] 109 % of control

Cc1cccc(N2CCNCC2)c1
inactive: dose: 6.25 mg/kg/injection, schedule: Q04DX003 (ip), vehicle: saline 93 % of control | dose: 12.5 mg/kg/injection, schedule: Q04DX003 (ip), vehicle: saline 96 % of control | dose: 25.0 mg/kg/injection, schedule: Q04DX002 (ip), vehicle: saline with Tween-80 101 % of control | [13] 102 % of control | dose: 50.0 mg/kg/injection, schedule: Q04DX002 (ip), vehicle: saline with Tween-80 92 % of control

Cc1ccc(Sc2cccc3c(C)c4cccc5c4c(c23)C[S+]5c2ccc(C)cc2)cc1 (configuration not stated)
inactive: dose: 1.56 mg/kg/injection, schedule: Q01DX009 (ip), vehicle: saline with Tween-80 103 % of control | dose: 3.13 mg/kg/injection, schedule: Q01DX009 (ip), vehicle: saline with Tween-80 101 % of control | [14] 103 % of control

C[N+](C)(C)C1(Cc2ccccc2)c2ccccc2-c2ccccc21
inactive: dose: 25.0 mg/kg/injection, schedule: Q01DX009 (ip), vehicle: saline 93 % of control | [13] 96 % of control | dose: 50.0 mg/kg/injection, schedule: Q01DX009 (ip), vehicle: saline 114 % of control | dose: 50.0 mg/kg/injection, schedule: Q04DX003 (ip), vehicle: saline 99 % of control | [15] 97 % of control | [1] 86 % of control

O=C(Nc1cccc(F)c1)Nc1cc([N+](=O)[O-])ccc1Cl
inactive: [5] 97 % of control | [8] 94 % of control | [11] 94 % of control and 97 % of control

CCc1nc2ccccc2[nH]1
inactive: [15] 97 % of control | [16] 102 % of control

O=C(N/N=C\c1ccc(Cl)c(Cl)c1)N/N=C/c1ccc(Cl)c(Cl)c1
inactive: dose: 50.0 mg/kg/injection, schedule: Q04DX003 (ip), vehicle: Klucel (hydroxypropylcellulose) (HPC) 92 % of control | [9] 87 % of control | [10] 92 % of control

Cc1ccc(S(=O)(=O)OCC(O)C(O)C(O)C(O)C=O)cc1 (configuration not stated) (tested in a mixture with another compound)
inactive: [15] 102 % of control | [16] 94 % of control | dose: 400.0 mg/kg/injection, schedule: Q04DX003 (ip), vehicle: saline with Tween-80 94 % of control

N=C(N)c1cccc(OCc2ccccc2)c1
inactive: dose: 100.0 mg/kg/injection, schedule: Q01DX001 (ip), vehicle: Klucel (hydroxypropylcellulose) (HPC) 90 % of control | dose: 200.0 mg/kg/injection, schedule: Q01DX001 (ip), vehicle: Klucel (hydroxypropylcellulose) (HPC) 94 % of control | dose: 400.0 mg/kg/injection, schedule: Q01DX001 (ip), vehicle: Klucel (hydroxypropylcellulose) (HPC) 94 % of control

Cc1ccc(-c2ccc(C)cc2)cc1
inactive: [9] 98 % of control | [10] 95 % of control | [12] 98 % of control

COc1ccc(NC(=O)Oc2ccccn2)cc1
inactive: dose: 25.0 mg/kg/injection, schedule: Q01DX009 (ip), vehicle: carboxymethylcellulose (CMC) 92 % of control and 100 % of control | dose: 50.0 mg/kg/injection, schedule: Q01DX009 (ip), vehicle: carboxymethylcellulose (CMC) 93 % of control and 103 % of control | dose: 100.0 mg/kg/injection, schedule: Q01DX001 (ip), vehicle: carboxymethylcellulose (CMC) 97 % of control | dose: 100.0 mg/kg/injection, schedule: Q04DX003 (ip), vehicle: carboxymethylcellulose (CMC) 93 % of control and 106 % of control | dose: 200.0 mg/kg/injection, schedule: Q01DX001 (ip), vehicle: carboxymethylcellulose (CMC) 101 % of control | dose: 200.0 mg/kg/injection, schedule: Q04DX003 (ip), vehicle: carboxymethylcellulose (CMC) 97 % of control and 113 % of control | dose: 400.0 mg/kg/injection, schedule: Q01DX001 (ip), vehicle: carboxymethylcellulose (CMC) 113 % of control | dose: 400.0 mg/kg/injection, schedule: Q04DX003 (ip), vehicle: carboxymethylcellulose (CMC) 97 % of control and 108 % of control

[C-]#[N+]C(C)(CC)c1ccccc1 (configuration not stated)
inactive: [14] 93 % of control | dose: 6.25 mg/kg/injection, schedule: Q04DX003 (ip), vehicle: acetone 96 % of control | dose: 12.5 mg/kg/injection, schedule: Q01DX001 (ip), vehicle: acetone 91 % of control | dose: 12.5 mg/kg/injection, schedule: Q01DX009 (ip), vehicle: saline with Tween-80 95 % of control | dose: 12.5 mg/kg/injection, schedule: Q04DX003 (ip), vehicle: acetone 108 % of control | dose: 25.0 mg/kg/injection, schedule: Q01DX001 (ip), vehicle: acetone 96 % of control | dose: 25.0 mg/kg/injection, schedule: Q01DX009 (ip), vehicle: saline with Tween-80 95 % of control | dose: 25.0 mg/kg/injection, schedule: Q04DX003 (ip), vehicle: acetone 100 % of control
